This passage reports melting point results from patent publication US8962674B2 (Tokyo Institute of Technology, priority 2006, dated 2015).

For orientation: melting point means the temperature of the solid-liquid transition. Regarding `O=C(/C=C/c1ccc(O)cc1)CC(=O)/C=C/c1ccc2oc(=O)ccc2c1` [CU445, (1E,6E)-1-(4-hydroxyphenyl)-7-(coumarin-6-yl)hepta-1,6-diene-3,5-dione], the melting point fell in the range of 240 to 246 °C.
The compound `COCOc1ccc(OC)cc1/C=C/C(=O)CC(=O)/C=C/c1cc(OC)ccc1OCOC` [CU447, (1E,6E)-1,7-bis[5-methoxy-2-(methoxymethoxy)phenyl]hepta-1,6-diene-3,5-dione] showed a melting point of 140 to 143 °C.
Consider `CCN(CC)c1ccc(/C=C/C(=O)CC(=O)/C=C/c2ccc(O)cc2)c(OCc2ccc(OC)cc2)c1` [CU448, (1E,6E)-1-[4-diethylamino-2-(4-methoxybenzyloxy)phenyl]-7-(4-hydroxyphenyl)hepta-1,6-diene-3,5-dione], for which the melting point is 71 to 78 °C.
The compound `CCN(CC)c1ccc(/C=C/C(=O)CC(=O)/C=C/c2ccc(O)cc2)c(OCc2cccnc2)c1` [CU449, (1E,6E)-1-[4-diethylamino-2-(pyridin-3-ylmethoxy)phenyl]-7-(4-hydroxyphenyl)hepta-1,6-diene-3,5-dione] displayed a melting point of 180 to 186 °C.
To `CCN(CC)c1ccc(/C=C/C(=O)CC(=O)/C=C/c2ccc(O)cc2)c(OCc2c(F)cccc2Cl)c1` [CU450, (1E,6E)-1-[2-(2-chloro-6-fluorobenzyloxy)-4-diethylaminophenyl]-7-(4-hydroxyphenyl)hepta-1,6-diene-3,5-dione] belongs 172 to 175 °C.
Compound `CCN(CC)c1ccc(/C=C/C(=O)CC(=O)/C=C/c2ccc(O)cc2)c(OCc2ccc(Cl)cc2Cl)c1` [CU451, (1E,6E)-1-[2-(2,4-dichlorobenzyloxy)-4-diethylaminophenyl]-7-(4-hydroxyphenyl)hepta-1,6-diene-3,5-dione] gave a melting point of 73 to 80 °C.
`CCN(CC)c1ccc(/C=C/C(=O)CC(=O)/C=C/c2ccc(O)cc2)c(OCc2ccc(C(C)(C)C)cc2)c1` [CU452, (1E,6E)-1-[2-(4-tert-butylbenzyloxy)-4-diethylaminophenyl]-7-(4-hydroxyphenyl)hepta-1,6-diene-3,5-dione] gave a melting point of 187 to 190 °C.
Consider `COc1cc(/C=C/C(=O)CC(=O)/C=C/c2cccc3cccnc23)ccc1O` [CU453, (1E,6E)-1-(4-hydroxy-3-methoxyphenyl)-7-(quinolin-8-yl)hepta-1,6-diene-3,5-dione], for which the melting point is 83 to 87 °C.
For `COc1ccc(/C=C/C(=O)CC(=O)/C=C/c2cccc3cccnc23)cc1O` [CU454, (1E,6E)-1-(3-hydroxy-4-methoxyphenyl)-7-(quinolin-8-yl)hepta-1,6-diene-3,5-dione], the melting point is 80 to 85 °C.
As to `COCOc1ccc(OC)cc1/C=C/C(=O)CC(=O)/C=C/c1cc(OC)ccc1O` [CU456, (1E,6E)-1-(2-hydroxy-5-methoxyphenyl)-7-[5-methoxy-2-(methoxymethoxy)phenyl]hepta-1,6-diene-3,5-dione], the melting point was in the range of 131 to 138 °C.
The figure for `COc1cc(/C=C/C(=O)CC(=O)/C=C/c2c[nH]c3cccc([N+](=O)[O-])c23)ccc1O` [CU462, (1E,6E)-1-(4-hydroxy-3-methoxyphenyl)-7-(4-nitro-1H-indol-3-yl)hepta-1,6-diene-3,5-dione] is 232 to 237 °C; for `COc1ccc(/C=C/C(=O)CC(=O)/C=C/c2c[nH]c3cccc([N+](=O)[O-])c23)cc1O` [CU463, (1E,6E)-1-(3-hydroxy-4-methoxyphenyl)-7-(4-nitro-1H-indol-3-yl)hepta-1,6-diene-3,5-dione] it is 226 to 233 °C.
For the compound `O=C(/C=C/c1ccc(O)cc1)CC(=O)/C=C/c1cccc(Br)c1` [CU464, (1E,6E)-1-(3-bromophenyl)-7-(4-hydroxyphenyl)hepta-1,6-diene-3,5-dione], the melting point is 156 to 160 °C.
Compound `O=C(/C=C/c1ccc(O)cc1)CC(=O)/C=C/c1cc(Cl)ccc1[N+](=O)[O-]` [CU465, (1E,6E)-1-(5-chloro-2-nitrophenyl)-7-(4-hydroxyphenyl)hepta-1,6-diene-3,5-dione] gave a melting point of 241 to 250 °C.
To `O=C(/C=C/c1ccc(O)cc1)CC(=O)/C=C/c1cc(Br)ccc1F` [CU466, (1E,6E)-1-(5-bromo-2-fluorophenyl)-7-(4-hydroxyphenyl)hepta-1,6-diene-3,5-dione] belongs 177 to 203 °C; to `O=C(/C=C/c1ccc(O)cc1)CC(=O)/C=C/c1ccccc1C(F)(F)F` [CU467, (1E,6E)-1-(4-hydroxyphenyl)-7-(2-trifluoromethylphenyl)hepta-1,6-diene-3,5-dione], 181 to 185 °C.
In the case of `O=C(/C=C/c1ccc(O)cc1)CC(=O)/C=C/c1cc(F)cc(F)c1` [CU468, (1E,6E)-1-(3,5-difluorophenyl)-7-(4-hydroxyphenyl)hepta-1,6-diene-3,5-dione], the melting point fell in the range of 153 to 156 °C.
`O=C(/C=C/c1ccc(O)cc1)CC(=O)/C=C/c1ccc(Br)cc1F` [CU471, (1E,6E)-1-(4-bromo-2-fluorophenyl)-7-(4-hydroxyphenyl)hepta-1,6-diene-3,5-dione]: the melting point was 223 to 232 °C.
Compound `O=C(/C=C/c1ccc(O)cc1)CC(=O)/C=C/c1ccccc1-c1ccccc1` [CU472, (1E,6E)-1-(biphenyl-2-yl)-7-(4-hydroxyphenyl)hepta-1,6-diene-3,5-dione] registered a melting point of 180 to 188 °C.
The figure for `O=C(/C=C/c1ccc(O)cc1)CC(=O)/C=C/c1cc(C(F)(F)F)ccc1F` [CU473, (1E,6E)-1-(2-fluoro-5-trifluoromethylphenyl)-7-(4-hydroxyphenyl)hepta-1,6-diene-3,5-dione] is 168 to 174 °C.
The figure for `CCCN(CCC)C(=O)c1cccc(/C=C/C(=O)CC(=O)/C=C/c2ccc(O)cc2)c1` [CU474, (1E,6E)-1-[3-(di-n-propylaminocarbonyl)phenyl]-7-(4-hydroxyphenyl)hepta-1,6-diene-3,5-dione] is 159 to 165 °C.
For `COC(=O)c1ccccc1/C=C/C(=O)CC(=O)/C=C/c1ccc(O)cc1` [CU478, (1E,6E)-1-(4-hydroxyphenyl)-7-[2-(methoxycarbonyl)phenyl]hepta-1,6-diene-3,5-dione], the melting point was in the range of 145 to 150 °C.
Consider `CN(C)C(=O)c1ccccc1/C=C/C(=O)CC(=O)/C=C/c1ccc(O)cc1` [CU479, (1E,6E)-1-[2-(dimethylaminocarbonyl)phenyl]-7-(4-hydroxyphenyl)hepta-1,6-diene-3,5-dione], for which the melting point was in the range of 210 to 218 °C.
Compound `CN(C)S(=O)(=O)c1ccccc1/C=C/C(=O)CC(=O)/C=C/c1ccc(O)cc1` [CU480, (1E,6E)-1-[2-(dimethylaminosulfonyl)phenyl]-7-(4-hydroxyphenyl)hepta-1,6-diene-3,5-dione] showed a melting point of 86 to 90 °C.
The figure for `COc1ccc([N+](=O)[O-])c(/C=C/C(=O)CC(=O)/C=C/c2ccc(O)cc2)c1` [CU481, (1E,6E)-1-(4-hydroxyphenyl)-7-(5-methoxy-2-nitrophenyl)hepta-1,6-diene-3,5-dione] is 151 to 155 °C; for `Nc1ccccc1/C=C/C(=O)CC(=O)/C=C/c1ccc(O)cc1` [CU482, (1E,6E)-1-(2-aminophenyl)-7-(4-hydroxyphenyl)hepta-1,6-diene-3,5-dione] it is 186 to 193 °C.
The figure for `CS(=O)(=O)Oc1ccccc1/C=C/C(=O)CC(=O)/C=C/c1ccc(O)cc1` [CU483, (1E,6E)-1-(4-hydroxyphenyl)-7-[2-(methylsulfonyloxy)phenyl]hepta-1,6-diene-3,5-dione] is 163 to 167 °C.
For `CSc1ccccc1/C=C/C(=O)CC(=O)/C=C/c1ccc(O)cc1` [CU484, (1E,6E)-1-(4-hydroxyphenyl)-7-[2-(methylthio)phenyl]hepta-1,6-diene-3,5-dione], the melting point was in the range of 157 to 160 °C.
`O=C(/C=C/c1ccc(O)cc1)CC(=O)/C=C/c1ccccc1Br` [CU486, (1E,6E)-1-(2-bromophenyl)-7-(4-hydroxyphenyl)hepta-1,6-diene-3,5-dione] gave a melting point of 155 to 159 °C.
`Nc1ccc(O)cc1/C=C/C(=O)CC(=O)/C=C/c1ccc(O)cc1` [CU488, (1E,6E)-1-(2-amino-5-hydroxyphenyl)-7-(4-hydroxyphenyl)hepta-1,6-diene-3,5-dione] gave a melting point of 186 to 192 °C.
The figure for `Nc1ccc(OCc2ccccc2)cc1/C=C/C(=O)CC(=O)/C=C/c1ccc(O)cc1` [CU489, (1E,6E)-1-(2-amino-5-benzyloxyphenyl)-7-(4-hydroxyphenyl)hepta-1,6-diene-3,5-dione] is 175 to 179 °C; for `O=C(/C=C/c1ccc(O)cc1)CC(=O)/C=C/c1cc(OCc2c(F)cccc2Cl)ccc1[N+](=O)[O-]` [CU492, (1E,6E)-1-[5-(2-chloro-6-fluorobenzyloxy)-2-nitrophenyl]-7-(4-hydroxyphenyl)hepta-1,6-diene-3,5-dione] it is 180 to 183 °C.
The figure for `O=C(/C=C/c1ccc(O)cc1)CC(=O)/C=C/c1cc(OCc2ccc(Cl)cc2Cl)ccc1[N+](=O)[O-]` [CU493, (1E,6E)-1-[5-(2,4-dichlorobenzyloxy)-2-nitrophenyl]-7-(4-hydroxyphenyl)hepta-1,6-diene-3,5-dione] is 157 to 161 °C; for `CN(C)c1ccccc1/C=C/C(=O)CC(=O)/C=C/c1ccc(O)cc1` [CU495, (1E,6E)-1-(2-dimethylaminophenyl)-7-(4-hydroxyphenyl)hepta-1,6-diene-3,5-dione] it is 68 to 72 °C; for `O=C(/C=C/c1ccc(O)cc1)CC(=O)/C=C/c1ccccc1N1CCCC1` [CU496, (1E,6E)-1-(4-hydroxyphenyl)-7-[2-(pyrrolidin-1-yl)phenyl]hepta-1,6-diene-3,5-dione] it is 73 to 80 °C.
In the case of `O=C(/C=C/c1ccc(O)cc1)CC(=O)/C=C/c1ccccc1N1CCCCC1` [CU497, (1E,6E)-1-(4-hydroxyphenyl)-7-[2-(piperidin-1-yl)phenyl]hepta-1,6-diene-3,5-dione], the melting point was in the range of 77 to 84 °C.
Consider `O=C(/C=C/c1ccc(O)cc1)CC(=O)/C=C/c1ccccc1N1CCOCC1` [CU498, (1E,6E)-1-(4-hydroxyphenyl)-7-(2-morpholinophenyl)hepta-1,6-diene-3,5-dione], for which the melting point lay in the range of 188 to 192 °C.
